From patent publication US6552060B1, “Asymmetric disulfides and methods of using same” (Prolx Pharmaceuticals, Inc., priority 1997, dated 2003)
Read-outs that look alike come from different tables or passages of the source.

What was measured:
[1] = biological target: T1, TR/Trx (Homo sapiens, UniProt Q16881); assay: Thioredoxin dependent reduction of insulin by human thioredoxin reductase and NADPH (IC50 TR/Trx, 96 well); format: biochemical
T1 sequence (Q16881 1-499 isoform Q16881-5): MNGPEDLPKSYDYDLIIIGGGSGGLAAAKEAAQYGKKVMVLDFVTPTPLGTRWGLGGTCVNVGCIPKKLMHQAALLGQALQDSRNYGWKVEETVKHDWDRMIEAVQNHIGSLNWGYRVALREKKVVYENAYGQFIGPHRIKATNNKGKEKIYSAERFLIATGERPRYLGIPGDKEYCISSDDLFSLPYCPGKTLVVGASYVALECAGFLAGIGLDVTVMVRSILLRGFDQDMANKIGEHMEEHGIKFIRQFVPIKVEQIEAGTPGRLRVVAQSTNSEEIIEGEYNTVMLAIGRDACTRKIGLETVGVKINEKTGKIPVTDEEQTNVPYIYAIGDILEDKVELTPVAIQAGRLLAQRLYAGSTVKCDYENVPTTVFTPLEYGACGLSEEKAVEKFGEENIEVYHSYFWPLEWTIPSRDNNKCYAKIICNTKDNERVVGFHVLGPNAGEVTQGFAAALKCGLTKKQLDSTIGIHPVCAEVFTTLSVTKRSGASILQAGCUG
Description: When referring to the particular system being analyzed IC50 is typically followed by an abbreviation referring to that system (i.e., IC50 TR/Trx for the above described thioredoxin redox system which is comprised of thioredoxin reductase and thioredoxin).
A second plate was used for the assessment of biological activity or as a biological screen. Aliquots of disulfides dissolved in DMSO, were be transferred into 96 well plates. The assay to assess their ability to inhibit thioredoxin reductase measures the thioredoxin dependent reduction of insulin by human thioredoxin reductase and NADPH. The effects of the disulfides on the reduction of Trx by TR were measured spectrophotometrically by following the reduction of NADPH at 339 nm with insulin as the final electron acceptor in a buffered mixture of TR, Trx, NADPH and insulin.

[2] = test system: EMT6 mouse mammary tumor cells; assay: Cytotoxicity against EMT6 cells in culture (MTT); conditions: read-out: Disulfide Cytotoxicity (IC50), Table 5, 48 h exposure
[3] = in vitro; conditions: mouse
[4] = Table 3, read-out: IC50 TR/Trx (converted)

Disulfide inhibition of TR/Trx (IC50 TR/Trx) ([1]; Table 4) [µg/mL]	SMILES	IC50 [2] [µM]	further results
80	CCSSc1nccn1C [Compound A-2]	15	–
7	CCCSSc1ncc[nH]1 [Compound B-1]	21	–
147	CCCCSSc1nccn1C [Compound C-2]	26	–
7	CC(C)SSc1ncc[nH]1 [Compound E-1]	24	–
100	CC(C)SSc1nccn1C [Compound E-2]	33	–
100	Cc1nnc(SSC(C)C)s1 [Compound E-3]	> 180	–
–	CC(C)SSc1nc(N)nc2[nH]cnc12 [Compound E-6]	42	–
–	CC(C)SSc1ncnc2[nH]cnc12 [Compound E-7]	> 180	–
–	CC(C)SSc1nc2ccccc2[nH]1 [Compound E-8]	66	–
–	Cc1ccc2[nH]c(SSC(C)C)nc2c1 [Compound E-9]	> 180	–
–	CC(C)SSc1nc2cc([N+](=O)[O-])ccc2[nH]1 [Compound E-10]	29	–
–	CC(C)SSc1nc2ccccc2o1 [Compound E-12]	> 180	–
–	CC(C)SSc1ccccc1 [Compound E-13]	> 180	–
–	COc1cccc(CSSC(C)C)c1 [Compound E-20]	> 180	–
–	CC(C)SSC(C)c1ccccc1 (centres unmarked) [Compound E-22]	> 180	–
40	CC(C)SSc1ncccc1C(=O)O [Compound E-23]	> 180	–
60	Cc1ccnc(SSC(C)C)n1 [Compound E-24]	> 180	–
–	CC(C)SSCC(C)C(=O)N1CCCC1C(=O)O (centres unmarked) [Compound E-28]	> 180	–
51	CCC(C)SSc1nccn1C (centres unmarked) [Compound F-2]	43	–
–	CCC(C)SSc1nnc(C)s1 (centres unmarked) [Compound F-3]	–	IC50 [1, 4]: 68.1 µM; IC50 at 48 h [3]: 7 µM
–	CCC(C)SSc1nnc(S)s1 (centres unmarked) [Compound F-4]	–	IC50 [1, 4]: 117 µM; IC50 at 48 h [3]: 36 µM
–	CCC(C)SSc1nccs1 (centres unmarked) [Compound F-5]	–	IC50 at 48 h [3]: 34 µM
–	CCC(C)SSc1nc(N)nc2[nH]cnc12 (centres unmarked) [Compound F-6]	23	–
7	CCC(C)SSc1nc2ccccc2[nH]1 (centres unmarked) [Compound F-8]	73	–
47	CCC(C)SSc1nc2cc([N+](=O)[O-])ccc2[nH]1 (centres unmarked) [Compound F-10]	36	–
–	CCC(C)SSc1nc2ccccc2s1 (centres unmarked) [Compound F-11]	–	IC50 [3]: 33 µM
22	CCC(C)SSc1nc2ccccc2o1 (centres unmarked) [Compound F-12]	> 180	–

Disulfide inhibition of TR/Trx (IC50 TR/Trx) ([1]; Table 4) [µg/mL]	SMILES	IC50 [2] [µM]	further results
–	CCC(C)SSc1ccccc1 (centres unmarked) [Compound F-13]	> 180	–
>189	CCC(C)SSCc1ccccc1 (centres unmarked) [Compound F-19]	108	–
61	CCC(C)SSCc1cccc(OC)c1 (centres unmarked) [Compound F-20]	> 180	–
201	CCC(C)SSC(C)c1ccccc1 (centres unmarked) [Compound F-22]	> 180	–
81	CCC(C)SSc1ncccc1C(=O)O (centres unmarked) [Compound F-23]	> 180	–
83	CCC(C)SSc1nccc(C)n1 (centres unmarked) [Compound F-24]	> 180	–
–	CCC(C)SSC1=NCCS1 (centres unmarked) [Compound F-25]	31	–
–	CCCSSC1CCCC1 [Compound F-27]	–	IC50 ([1]; Table 4, read-out: Disulfide inhibition of TR/Trx (IC50 TR/Trx) (converted)): 289 µM; IC50 at 48 h [3]: 51 µM
–	CCC(C)SSCC(C)C(=O)N1CCCC1C(=O)O (centres unmarked) [Compound F-28]	> 180	–
8	CC(C)CSSc1ncc[nH]1 [Compound G-1]	28	–
–	ClCCCSSc1ncc[nH]1 [Compound H-1]	> 180	–
–	Cn1ccnc1SSCCCCl [Compound H-2]	> 180	–
–	Cc1nnc(SSCCCCl)s1 [Compound H-3]	> 180	–
–	ClCCCSSc1ncnc2[nH]cnc12 [Compound H-7]	36	–
–	ClCCCSSc1nc2ccccc2[nH]1 [Compound H-8]	82	–
–	Cc1ccc2[nH]c(SSCCCCl)nc2c1 [Compound H-9]	66	–
–	O=[N+]([O-])c1ccc2[nH]c(SSCCCCl)nc2c1 [Compound H-10]	59	–
–	ClCCCSSc1ccccc1 [Compound H-13]	> 180	–
–	ClCCCSSCc1ccccc1 [Compound H-19]	108	–
–	COc1cccc(CSSCCCCl)c1 [Compound H-20]	91	–
–	O=C(O)c1cccnc1SSCCCCl [Compound H-23]	69	–
–	CC(SSc1nccs1)c1ccccc1 (centres unmarked) [Compound J-1]	–	IC50 [1, 4]: 15.8 µM; IC50 at 48 h [3]: 28 µM
42	CC(SSc1nnc(S)s1)c1ccccc1 (centres unmarked) [Compound J-4]	–	–
38	CC(SSc1nc(N)nc2[nH]cnc12)c1ccccc1 (centres unmarked) [Compound J-6]	–	–
8	CC(SSc1nc2ccccc2[nH]1)c1ccccc1 (centres unmarked) [Compound J-8]	–	–
43	Cc1ccc2[nH]c(SSC(C)c3ccccc3)nc2c1 (centres unmarked) [Compound J-9]	–	–
43	CC(SSc1nc2cc([N+](=O)[O-])ccc2[nH]1)c1ccccc1 (centres unmarked) [Compound J-10]	–	–

Disulfide inhibition of TR/Trx (IC50 TR/Trx) ([1]; Table 4) [µg/mL]	SMILES	IC50 [2] [µM]	further results
16	CC(SSc1nc2ccccc2o1)c1ccccc1 (centres unmarked) [Compound J-12]	–	–
>232	CC(SSCc1ccccc1)c1ccccc1 (centres unmarked) [Compound J-19]	–	–
74	COc1cccc(CSSC(C)c2ccccc2)c1 (centres unmarked) [Compound J-20]	–	–
74	COc1ccc(CSSC(C)c2ccccc2)cc1 (centres unmarked) [Compound J-21]	–	–
89	CC(SSc1ncccc1C(=O)O)c1ccccc1 (centres unmarked) [Compound J-23]	–	–
67	Cc1ccnc(SSC(C)c2ccccc2)n1 (centres unmarked) [Compound J-24]	–	–
–	CC(O)C(C)SSc1ncc[nH]1 (centres unmarked) [Compound M-1]	34	–
–	CC(O)C(C)SSc1nccn1C (centres unmarked) [Compound M-2]	≥ 180	–
–	Cc1nnc(SSC(C)C(C)O)s1 (centres unmarked) [Compound M-3]	≥ 180	–
–	CC(O)C(C)SSc1nc(N)nc2[nH]cnc12 (centres unmarked) [Compound M-6]	32	–
–	CC(O)C(C)SSc1ncnc2[nH]cnc12 (centres unmarked) [Compound M-7]	≥ 180	–
–	CC(O)C(C)SSc1nc2ccccc2[nH]1 (centres unmarked) [Compound M-8]	≥ 180	–
–	Cc1ccc2[nH]c(SSC(C)C(C)O)nc2c1 (centres unmarked) [Compound M-9]	76	–
–	CC(O)C(C)SSc1nc2cc([N+](=O)[O-])ccc2[nH]1 (centres unmarked) [Compound M-10]	34	–
–	CC(O)C(C)SSc1nc2ccccc2o1 (centres unmarked) [Compound M-12]	29	–
–	CC(O)C(C)SSc1ccccc1 (centres unmarked) [Compound M-13]	–	IC50 at 48 h [3]: 46 µM
–	CC(O)C(C)SSCc1ccccc1 (centres unmarked) [Compound M-19]	91	–
–	CC(SSC(C)C(C)O)c1ccccc1 (centres unmarked) [Compound M-22]	≥ 180	–
–	CC(O)C(C)SSc1ncccc1C(=O)O (centres unmarked) [Compound M-23]	96	–
–	Cc1ccnc(SSC(C)C(C)O)n1 (centres unmarked) [Compound M-24]	≥ 180	–
–	CC(CSSC(C)C(C)O)C(=O)N1CCCC1C(=O)O (centres unmarked) [Compound M-28]	≥ 180	–
–	CC(O)C(C)SSc1nc2ccccc2o1 (centres unmarked) [Compound M-29]	–	IC50 at 48 h [3]: 29 µM
–	O=C(O)CCSSc1nc2ccccc2[nH]1 [Compound N-8]	≥ 180	–
–	O=C(O)CCSSc1ncccc1C(=O)O [Compound N-23]	92	–
–	CC1CCC(C(C)(C)SSCCC(=O)O)C(=O)C1 (centres unmarked) [Compound N-26]	≥ 180	–
